Reference: patent publication US10617689B2, “Compositions, methods and uses for the treatment of diabetes and related conditions by controlling blood glucose level” (PHARNEXT, priority 2013, dated 2020)

How the values were obtained:
[1] = Results synthesis: relative performance value over all in vitro models; details: results of all in vitro models normalized and weighed; single drugs
Description: Table 4 gathers results that were obtained in all previously described models (see points from 1.1 to 1.5 above). A value is attributed to each candidate compound depending on its effect in the different in vitro models compared to vehicle. Results are normalized and weighed in order to generate a relative performance value for each candidate compound. A high value reflects a high potential of the compound for the normalization of glucose level and thus a significant efficacy for controlling glucose levels and/or for the treatment of diabetes or related disorders. […]

[2] = test system: TNF-α induced insulin resistant 3T3-L1 adipocytes; assay: Glucose uptake in TNFα induced insulin resistant 3T3-L1 differentiated adipocytes; type: cell-based; details: for glucose uptake (in words): not shown
Description: 3T3L1 fibroblasts were maintained in DMEM 4.5 g/L glucose supplemented with 5% calf serum donor, 5% new born calf serum, 100 U/mL penicillin, and 100 μg/mL streptomycin at 37° C. under a 10% CO2 atmosphere. Cells were grown on 24 well plates at a density of 2560 cells/well in 0.5 mL of growth medium (DMEM 4.5 g/L glucose supplemented with 10% FCS, 100 U/mL penicillin, and 100 μg/mL streptomycin). […] Fresh medium were replaced after two days.
Glucose uptake was measured by quantification of incorporated radiolabelled glucose, after an incubation step with 2-deoxy-D[1,2^3H] glucose for 5 min. Glucose uptake was arrested by two washing steps in ice-cold PBS 1×. Then were solubilized in 0.1N NaOH for 30 min. Cell associated radioactivity have been then counted by using a MicroBeta counter after adding 600 μL per well of scintillant (Optiphase SuperMix3).
In parallel, protein quantification was determined by a colorimetric assay derived from LOWRY method. Results are expressed in nmol of glucose incorporated/5 min/mg of protein and in % of control or basal condition (100%).

[3] = test system: human primary myotubes derived from a diabetic patient; assay: Glucose uptake in human diabetic myotubes primary cultures; type: cell-based; details: for enhancement of glucose uptake: pre-treatment
Description: In order to have a model that is most reflective of the diabetic pathological conditions, efficiency of drugs in enhancing glucose uptake in diabetic myotubes was tested. […] The myotubes from a diabetic patient were grown on HAM's F10-based media (Sigma, ref […]) supplemented with 15% of fetal bovine serum, 1 mM glutamine. Myoblast were seeded at 380,000 cells/well in 12-well plates. After 2 days of proliferation, the cells were placed in reduced serum conditions (2% horse serum) to induce differentiation. The myotubes were used after 5 days of differentiation. Dulbecco's modified Eagle's medium (DMEM)-based media (Gibco, ref 31053-028) supplemented with 2% heat-inactivated Horse serum, 2% Glutamax (Gibco, 35050) and washed for glucose uptake assays. Compounds were dissolved in DMSO to reach desired final concentration prior use. The differentiated myotubes were treated for 24 h with the compositions of the invention, before the assay. Before the initiation of glucose uptake, the cells were deprived of serum and glucose. […] After adding the compounds at the desired concentrations, the cells were incubated at 37° C. during 2 h30. […] A subsequent glucose and serum deprivation was performed in FIBS buffer at 37° C. for 2 hours. […] The cells were rinsed twice with 1 mL of cold PBS. The lysis was performed in 500 μL of 0.05N NaOH for 20 minutes. The cells lysates were transferred into scintillation vials for the measurement of radioactivity with a MicroBeta counter.

[4] = test system: Mouse muscle cells H-2 Kb; assay: Glucose uptake in mouse muscle cells; type: cell-based; details: H-2 Kb cells; short term; 0.1 μM; vs non-treated cells
Description: For differentiation in myoblast, cells are switched to non-permissive culture conditions (37° C. in a humidified atmosphere of 95% air/5% CO2; DMEM 5.5 mM D-glucose supplemented with 2% FCS, 10% horse serum, 2% glutamine, 1% chicken embryo extract, 100 U/mL penicillin, and 100 μg/mL streptomycin).
For long term effect evaluation, the day before glucose uptake assay, cells are incubated in DMEM 5.5 mM D-glucose supplemented with 10% horse serum, 2% SVF, 1% chicken embryo extract, 2% glutamine in the presence of the tested molecules for 16 h. […]
For short term effect evaluation, 4 hours prior to the glucose test, cells are washed and incubated in a serum-free medium (DMEM) containing 5.5 mM D-glucose and the tested molecules. Then glucose uptake is measured by incubation of the cells for 5-10 min with radiolabelled 2-deoxy-D-[1,2 ^3H] glucose in Krebs-Ringer HEPES buffer (KRBH; pH 7.4) 0.1% Bovine Serum Albumine (BSA) fraction V (Sigma_A-4503). […] Cell associated radioactivity is then counted and protein quantification is determined using the colorimetric Lowry method. Glucose uptake is estimated by measuring the radioactivity incorporated to the cells by a MicroBeta counter after adding 600 μL per well of scintillant (Optiphase SuperMix3).
Protein quantification is performed by a colorimetric assay derived from Lowry method. […]

[5] = test system: beta pancreatic INS-1 cells; assay: Prevention of beta cells apoptosis; type: cell-based; details: 1 h pre-incubation then 24 h in apoptotic condition, drugs tested alone
Description: Drugs of the invention have been tested for their efficiency in protecting beta cells from apoptosis. Such activity could be considered of use in type 1 diabetes as well as in type 2 diabetes.
The beta pancreatic INS-1 cells have been selected for this study. The cells are cultured in complete medium, RPMI 1640 10 mM glucose supplemented with 1 mM sodium pyruvate, 50 μM 2-mercaptoethanol, 2 mM glutamine, 10 mM HEPES, 100 IU/mL penicillin, 100 μg/mL streptomycin and 10% heat-inactivated foetal calf serum (FCS), as described by Asfari et al. (23). INS-1 cells are plated (4.5×10^4 cells/well) in 96-well poly ornithine coated plates and cultured at 37° C. in a humidified atmosphere of 95% air/5% CO2. The day after, cells are pre-incubated with the tested molecules for 1 h. Then, after a medium change, cells are cultured for 24 h in a medium containing the tested molecules and glucose 30 mM, myristic acid 0.05 mM, INF 25 ng/mL, TNF 25 ng/mL and IL 5 ng/mL.
The efficacy of compounds to prevent apoptosis is then evaluated by the highly specific apoptosis detection kit from Chemicon (Ref. APT225). This procedure is based on the detection of single-stranded DNA (ssDNA) which is a specific marker of apoptotic cells (24).
Results are expressed in optical density (OD) arbitrary unit and % of reduction of the apoptosis induced by apoptotic condition. […]

[6] = mainly from Martindale (Edition 2011) and Nathan et al. (2009); cited from earlier work

SMILES	Relative performance value [1]	further results
CCN(CC)C(=O)N1CCN(C)CC1 [diethylcarbamazine]	32	–
NCC(CC(=O)O)c1ccc(Cl)cc1 (racemic) [baclofen]	16	glucose uptake, drug used alone (in words) ([2]; alone at 3.3 nM): No significant effect
C1COC(NC(C2CC2)C2CC2)=N1 [rilmenidine]	16	–
Cc1cccc(C)c1OCC(C)N (centres unmarked) [mexiletine]	10	–
CN/C(=N/CCSCc1nc[nH]c1C)NC#N [cimetidine]	31	–
c1cnc(N2CCN(Cc3ccc4c(c3)OCO4)CC2)nc1 [piribedil]	24	–
Cc1ccc(C(=O)C(C)CN2CCCCC2)cc1 (centres unmarked) [tolperisone]	19	–
CC(C(O)c1ccc(O)cc1)N1CCC(Cc2ccccc2)CC1 (centres unmarked) [ifenprodil]	28	glucose uptake (in words) ([3]; 0.1 μM and 1 μM): improvement; enhancement of glucose uptake ([3]; 0.01 μM): +48%; glucose uptake (in words) ([2]; 10 nM and 100 nM): improvement
O=C1NCC2(CCN(CCc3ccccc3)CC2)O1 [fenspiride]	–	enhancement of glucose uptake ([3]; 0.01 μM): +34%; enhancement of glucose uptake ([3]; 0.1 μM): +30%; enhancement of glucose uptake ([3]; 1 μM): +27%; glucose uptake (in words) ([2]; 0.37 nM and 3.3 nM): improvement
Nc1nc(N)c2nc(-c3ccccc3)c(N)nc2n1 [triamterene]	18	enhancement of glucose uptake ([3]; 0.01 μM): +13%; glucose uptake, drug used alone (in words) ([2]; alone at 3.3 nM): No significant effect
C=CCNc1nc(NCC=C)nc(N2CCN(C(c3ccc(F)cc3)c3ccc(F)cc3)CC2)n1 [almitrine]	38	–
CO[C@]12C[C@@H](COC(=O)c3cncc(Br)c3)CN(C)[C@@H]1Cc1cn(C)c3cccc2c13 [nicergoline]	40	–
Cc1c(Cl)cccc1Nc1ccccc1C(=O)O [tolfenamic acid]	9	enhancement of glucose uptake ([3]; 0.01 μM): +13%; enhancement of glucose uptake ([3]; 0.1 μM): +13%; enhancement of glucose uptake ([3]; 1 μM): +12%; glucose uptake (in words) ([2]; 100 nM and 1 μM): improvement; glucose uptake, drug used alone (in words) ([2]; alone at 3.3 nM): No significant effect
CC(=O)NCCCS(=O)(=O)O [acamprosate]	15	enhancement of glucose uptake [4]: +45%; Percentage of apoptosis reduction [5]: 49%
CN(C)CC[C@@H](c1ccc(Br)cc1)c1ccccn1 [dexbrompheniramine]	21	–
C[C@@H](NCCCc1cccc(C(F)(F)F)c1)c1cccc2ccccc12 [cinacalcet]	32	–
CCN[C@@H](C)Cc1cccc(C(F)(F)F)c1 [dexfenfluramine]	–	Side Effects [6]: Cardiovascular
CN(C)C(=N)N=C(N)N [metformin]	–	glucose uptake, drug used alone (in words) ([2]; metformin alone at 250 μM): No significant effect
COC1=C(OC)C(=O)C(CCCCCCCCCCO)=C(C)C1=O [idebenone]	53	–
CN1CCCC(n2nc(Cc3ccc(Cl)cc3)c3ccccc3c2=O)CC1 (centres unmarked) [azelastine]	30	–
Cc1cccc(Nc2ccncc2S(=O)(=O)NC(=O)NC(C)C)c1 [torasemide]	16	enhancement of glucose uptake ([3]; 0.01 μM): +24%; enhancement of glucose uptake ([3]; 1 μM): +14%; glucose uptake, drug used alone (in words) ([2]; alone at 10 nM): No significant effect
C[C@@H]1CC(=O)NN=C1c1ccc(NN=C(C#N)C#N)cc1 [levosimendan]	20	–
CCN(CC)CCOCCOC(=O)C1(c2ccccc2)CCCC1 [carbetapentane]	33	–
O=C[C@@H](O)[C@@H](O)[C@H](O)[C@H](O)CO [D-mannose]	18	–
Cn1c(=O)c2c(ncn2CC(O)CO)n(C)c1=O (centres unmarked) [diprophylline]	11	–
